This note sets out measurements from PMC9011347, “Small-Molecule Inhibitors Targeting Lipolysis in Human Adipocytes” (Journal of the American Chemical Society, 2022).

For the assay, the system named is HepG2^control cells. The assay is described as follows: Seahorse cellular respiration (OCR). The following applies: NG-497 40 μM. It counts as cell-based, human. The text has this: NG-497 could affect respiration by limiting the availability of FAs as an energy substrate or by off-target effects leading to mitochondrial dysfunction, which is a major mechanism of drug-induced toxicity.[47] To monitor on- and off-target effects of NG-497 on cellular respiration, we performed seahorse experiments using HepG2 cells endogenously expressing (HepG2^control) or lacking ATGL (HepG2^AKO). This method allows the measurement of basal respiration (BR), maximal respiration (MR), proton leak (PL), ATP production (ATPP), spare respiratory capacity (SRC), and nonmitochondrial oxygen consumption (NMOC) after successive addition of oligomycin (ATP-synthase inhibitor), carbonyl cyanide p-trifluoromethoxyphenylhydrazone (FCCP) (uncoupler), and antimycin/rotenone (electron transport chain inhibitors). The human hepatoma cell line HepG2 was selected as a model since it is frequently used to monitor drug-induced mitochondrial dysfunction.[48] Like most cancer cell lines, HepG2 cells rely on anaerobic glycolysis for ATP generation, implicating that inhibition of lipolysis has only minor effects on respiration.
(a) HepG2 cells were treated with NG-497 (40 μM) or DMSO as control and oxygen consumption rate (OCR) was determined in Seahorse growth medium supplemented with glucose (25 mM) using the SeaHorse XF96 extracellular flux analyzer. OCR was determined after subsequent addition of 1 μM Oligomycin (ATP-synthase inhibitor), 1 μM FCCP (uncoupler), and 1 μM antimycin/rotenone (electron transport chain inhibitors). (b) Statistical analysis of basal respiration (BR), maximal respiration (MR), proton leak (PL), ATP production (ATPP), spare respiratory capacity (SRC), and nonmitochondrial oxygen consumption (NMOC) of control and NG-497-treated cells. (c) Extracellular acidification rate (ECAR) and (d) OCR of HepG2 cells were determined in Seahorse growth medium supplemented with glucose (25 mM) or galactose (10 mM). (e) Determination of the ORC of HepG2 cells grown in medium supplemented with galactose (10 mM) and NG-497 (40 μM) or DMSO as control with (f) respective statistical analysis. (g) ATGL gene was inactivated in HepG2 cells using the CRISPR/Cas9 system. Growth of cells expressing (HepG2^control) or lacking functional ATGL (HepG2^AKO) was determined using a BioRad cell analyzer. ATGL expression was analyzed by Western blotting analysis using an anti-ATGL antibody and GAPDH as a loading control (inset). (h) Acylglycerol content of HepG2^control and HepG2^AKO cells was determined by a commercial kit (TG Infinity reagent, Thermo Fisher Scientific). (i) OCR of galactose-supplemented HepG2^AKO cells and (j) the respective statistical analysis. Data are presented as mean ± standard error of the mean (SEM). Statistical significance was determined via Student’s t test (*p < 0.05; **p < 0.01; ***p < 0.001) or ANOVA followed by Bonferroni post hoc test (^#p < 0.05; ^##p < 0.01; ^###p < 0.001). […]
Sanger sequencing. The resulting constructs were transfected into HepG2 cells using the Turbofect Reagent (#R0531, Thermo Fisher Scientific) according to the manufacturer’s instructions. Cells transfected with empty pSpCas9(BB)-2A-Puro V2.0 served as negative control. 24 h after transfection, puromycin was added at a concentration of 4 µg/ml to eliminate non-transfected cells.
48 h later, the remaining cells were singularized in 96-well plates by seeding 1 cell/well. After clonal expansion for three weeks, the resulting cell lines were screened for ATGL deletion by immunoblotting using an ATGL-specific antibody (#2138S, CST). gRNA_v1 construct was chosen for further analysis.
Determination of cellular acylglycerol content. Cells were harvested in buffer A, total lipids extracted with chloroform/methanol (2/1, v/v) for 1 h at RT on a top-over wheel, and phase separation was achieved by centrifugation at 2,000 x g for 10min at RT. The organic phase was collected, dried under a stream of nitrogen, and dissolved in 2% Triton X-100 by […]
sonication. […]

Where [1] appears, read: glucose medium, tendency, not significant.

Regarding `CCOc1ccc(-c2cc(OC)cc(C(=O)OC(C)C)n2)cc1` [NG-497], for the setting “galactose (10 mM) medium”, the “change of basal OCR (BR)” value is −15%, the “change of maximal respiration (MR)” value is −17% and the “change of spare respiratory capacity (SRC)” value was −20%. Besides, under setting [1], the “change of maximal respiration (MR)” value is reported as −11% and the “change of spare respiratory capacity (SRC)” value is on record as −18%. Moreover, the “effects on respiration (OCR parameters)” value (medium with glucose (25 mM)) is listed as “could not observe significant effects”.
